Data published in the Deep4Chem optical property database.
Each block holds one molecule with its values, some of them ahead of it.

Assay: solvent given as SMILES

SMILES: c1ccc(/C(=C(\c2ccccc2)c2cc(-c3ccccc3)ccc2-c2ccccc2)c2cc(-c3ccccc3)ccc2-c2ccccc2)cc1
emission maximum (in C1CCOC1): 489 nm

SMILES: CCC(C)(C)c1ccc2c(c1)C(CC)(CC)c1cc(-c3ccc(-c4ccc5c(c4)C(CC)(CC)c4cc(C(C)(C)CC)ccc4-5)cc3)ccc1-2
emission maximum (in C1CCCCC1): 381 nm

SMILES: COc1ccc(C2CC(c3ccc(O)cc3)=NN2c2ccc(S(N)(=O)=O)cc2)cc1 (configuration not stated)
emission maximum (in C1CCOC1): 417 nm | emission maximum (in C1COCCO1): 418 nm | emission maximum (in CC#N): 418 nm | emission maximum (in CC(C)O): 423 nm | emission maximum (in CCO): 429 nm | emission maximum (in CCOC(C)=O): 416 nm | emission maximum (in CN(C)C=O): 422 nm | emission maximum (in CO): 432 nm | emission maximum (in CS(C)=O): 425 nm | emission maximum (in O): 448 nm

SMILES: COc1ccc(N(c2ccc(OC)cc2)c2ccc3c(c2)C2(c4cc(N(c5ccc(OC)cc5)c5ccc(OC)cc5)ccc4C=C3)c3ccccc3-c3ccccc32)cc1
emission maximum (in ClCCl): 483 nm

SMILES: Clc1ccccc1N1c2sc3ccccc3c2Sc2c1sc1ccccc21
emission maximum (in ClCCl): 541 nm

SMILES: CC(C)(C)c1cc2cc(N(c3ccccc3)c3ccccc3)c3cc(C(C)(C)C)cc4cc(N(c5ccccc5)c5ccccc5)c(c1)c2c43
emission maximum (in C1CCOC1): 466.72 nm | emission maximum (in CC#N): 497.22 nm | emission maximum (in CCCCCC): 426 nm

SMILES: COc1ccc(-c2c3ccccc3c(-c3ccc(OC)cc3)c3cc4ccccc4cc23)cc1
emission maximum (in ClCCl): 511 nm

SMILES: CC(C)c1cc(C(C)C)c(B2c3cc(N4c5ccccc5C(C)(C)c5ccccc54)ccc3N(c3ccccc3)c3ccc(N4c5ccccc5C(C)(C)c5ccccc54)cc32)c(C(C)C)c1
emission maximum (in C1CCOC1): 485.71 nm | emission maximum (in CCOC(C)=O): 481.97 nm | emission maximum (in Cc1ccccc1): 469.39 nm | emission maximum (in ClCCl): 494.56 nm | emission maximum (in c1cc(-c2cccc(-n3c4ccccc4c4ccccc43)c2)cc(-n2c3ccccc3c3ccccc32)c1): 469 nm

SMILES: Cc1ccsc1-c1ccc(-c2ccc(-c3sccc3C)s2)s1
emission maximum (in CCCCCCCCCCCCCC): 473 nm

SMILES: COc1ccc(/C=C/C=C/C=C/c2ccc([N+](=O)[O-])cc2)cc1
emission maximum (in C1CCOC1): 611 nm | emission maximum (in C1COCCO1): 565 nm | emission maximum (in CC1CCCCC1): 485 nm | emission maximum (in CC#N): 740 nm | emission maximum (in CO): 690 nm | emission maximum (in CS(C)=O): 744 nm | emission maximum (in Cc1ccccc1): 541 nm | emission maximum (in ClC(Cl)Cl): 681 nm | emission maximum (in ClCCl): 694 nm

SMILES: CCCCc1cc(-c2cccc(COC)c2)oc1-c1cccc(-c2cc(CCCC)c(-c3cccc(-c4cc(CCCC)c(-c5cccc(-c6oc(-c7cccc(-c8oc(-c9cccc(-c%10oc(-c%11cccc(COC)c%11)cc%10CCCC)c9)cc8CCCC)c7)cc6CCCC)c5)o4)c3)o2)c1
emission maximum (in ClC(Cl)Cl): 374 nm

SMILES: CC(C)(C)c1ccc(-n2c(-c3ccc(-c4cccc(-c5c(-c6ccccc6)nc6ccccn56)c4)cc3)nc3c4ccccc4c4ccccc4c32)cc1
emission maximum (in ClCCl): 417 nm

SMILES: CCC1=C(C)C2=C(C)c3c(C)c(CC)c(C)n3[B-](F)(F)[N+]2=C1C
emission maximum (in C1CCCCC1): 537.2 nm | emission maximum (in C1CCOC1): 534 nm | emission maximum (in C1COCCO1): 533.2 nm | emission maximum (in CC#N): 530.4 nm | emission maximum (in CC(C)=O): 532 nm | emission maximum (in CC(C)O): 534 nm | emission maximum (in CCC(C)C): 534.4 nm | emission maximum (in CCCCCC): 533.6 nm | emission maximum (in CCCCCCCC): 535.2 nm | emission maximum (in CCCCCCCCCCO): 534.8 nm | emission maximum (in CCCCCCCCO): 534.4 nm | emission maximum (in CCCCCCO): 534.8 nm | emission maximum (in CCCCO): 534.4 nm | emission maximum (in CCCO): 534 nm | emission maximum (in CCO): 532.4 nm | emission maximum (in CCOC(C)=O): 531.6 nm | emission maximum (in CCOCC): 532.8 nm | emission maximum (in CN1CCCC1=O): 533.2 nm | emission maximum (in CN(C)C=O): 532.8 nm | emission maximum (in CO): 531.6 nm | emission maximum (in Cc1ccccc1): 536.4 nm | emission maximum (in ClCCl): 534 nm | emission maximum (in OCC(F)(F)F): 535.2 nm | emission maximum (in OCCO): 536.4 nm | emission maximum (in OCCOc1ccccc1): 536.8 nm | emission maximum (in c1ccccc1): 536.4 nm

SMILES: COc1cc2c(cc1OC)C1=C[C@H](c3ccccc3)C3(C(C#N)=C(C#N)N1CC2)c1ccccc1-c1ccccc13
emission maximum (in ClCCl): 410 nm

SMILES: Cc1cc(O)c(C(=O)/C=C/c2ccc(O)c(O)c2)c(=O)o1
emission maximum (in CC#N): 518 nm | emission maximum (in ClCCl): 493 nm

SMILES: CC(C)(C)c1ccc2c(c1)c1cc(C(C)(C)C)ccc1n2-c1cccc2c1Oc1c(-c3nc(-c4ccccc4)nc(-c4ccccc4)n3)cccc1C2(C)C
emission maximum (in C1CCCCC1): 428 nm | emission maximum (in CC(C)=O): 503 nm | emission maximum (in Cc1ccccc1): 451 nm | emission maximum (in ClC(Cl)Cl): 489 nm

SMILES: c1ccc(/C(=C(\c2ccccc2)c2ccccc2-c2ccc(-c3ccccc3)cc2)c2ccccc2-c2ccc(-c3ccccc3)cc2)cc1
emission maximum (in C1CCOC1): 492 nm

SMILES: c1cc2ccc1-c1ccc(cc1)-c1sc(c3c1OCCO3)-c1ccc(cc1)-c1ccc(cc1)-c1sc(c3c1OCCO3)-c1ccc(cc1)-c1ccc(cc1)-c1sc-2c2c1OCCO2
emission maximum (in C1CCOC1): 555 nm

SMILES: Cc1cc2c(ccc3c(C)[n+](C)c(C)cc32)c(C)[n+]1C
emission maximum (in CC#N): 424 nm

SMILES: COc1ccc(C(=Cc2ccc(/C=C(\C#N)c3ccccc3)cc2)c2ccc(OC)cc2)cc1
emission maximum (in C1CCOC1): 510 nm

SMILES: NS(=O)(=O)c1ccc(N2N=C(c3ccc(O)cc3)CC2c2ccccc2)cc1 (configuration not stated)
emission maximum (in C1CCOC1): 418 nm | emission maximum (in C1COCCO1): 417 nm | emission maximum (in CC#N): 417 nm | emission maximum (in CC(C)O): 423 nm | emission maximum (in CCO): 428 nm | emission maximum (in CCOC(C)=O): 416 nm | emission maximum (in CN(C)C=O): 422 nm | emission maximum (in CO): 432 nm | emission maximum (in CS(C)=O): 424 nm | emission maximum (in O): 448 nm

SMILES: NNC(=O)c1ccc(/C=C/c2ccc(C(=O)NN)cc2)cc1
emission maximum (in CN(C)C=O): 395 nm

SMILES: c1cc2ccc1CCCc1ccc(c3nsnc13)CCC2
emission maximum (in C1CCCCC1): 468 nm | emission maximum (in CC#N): 497 nm | emission maximum (in ClC(Cl)Cl): 496 nm

SMILES: O=C1/C(=C2\Sc3ccc(S(=O)(=O)Cl)cc3C2=O)Sc2ccc(S(=O)(=O)Cl)cc21
emission maximum (in C1COCCO1): 576 nm | emission maximum (in CS(C)=O): 624 nm

Next, values leading:

emission maximum (in ClCCl): 495 nm
SMILES: CCN(CC)c1ccc2cc(-c3nc4cc(C(=O)Nc5ccccc5)ccc4o3)c(=O)oc2c1

emission maximum (in ClCCl): 425 nm
SMILES: CCOC(=O)c1c(-c2cc3ccc(OCC=C(C)C)cc3oc2=O)nn(-c2cccc(C)c2)c1C(=O)OCC

emission maximum (in ClCCl): 392 nm
SMILES: CCn1c2ccc(-c3cccs3)cc2c2cc(-c3cccs3)ccc21

emission maximum (in C1COCCO1): 554 nm | emission maximum (in CC#N): 570 nm | emission maximum (in CCO): 580 nm | emission maximum (in CCOC(C)=O): 558 nm | emission maximum (in ClC(Cl)Cl): 550 nm | emission maximum (in c1ccccc1): 549 nm
SMILES: CCOC(=O)c1sc2nc(-c3ccccc3)c(C)c(C#N)c2c1N

emission maximum (in ClCCl): 520 nm
SMILES: Cn1cc(-c2nc3ccccc3nc2C#Cc2ccc(C#N)cc2)c2ccccc21

emission maximum (in ClC(Cl)Cl): 618 nm
SMILES: N#CC(C#N)=Cc1ccc(-c2ccc(N(c3ccccc3)c3ccccc3)cc2)o1

emission maximum (in CC1CCCCC1): 480 nm | emission maximum (in CC#N): 471 nm | emission maximum (in CO): 405 nm
SMILES: COC(=O)C(NC(=O)OC(C)(C)C)c1ccc2oc(-c3ccc(OC(=O)c4ccccc4)cc3O)nc2c1 (configuration not stated)

emission maximum (in ClC(Cl)Cl): 482 nm
SMILES: CCN(CC)c1ccc2cc(-c3ccc(-c4ccc5c6ccccc6c6c7cc(-c8ccc(-c9cc%10ccc(N(CC)CC)cc%10oc9=O)cc8)ccc7c7ccccc7c6c5c4)cc3)c(=O)oc2c1

emission maximum (in ClCCl): 453 nm
SMILES: C(=C\c1ccc(-c2cccc3ccccc23)s1)/c1cccs1

emission maximum (in CC#N): 480 nm
SMILES: CCN(CC)c1ccc2cc(-c3nc4ccccc4n3C)c(=O)oc2c1

emission maximum (in CCO): 564 nm
SMILES: CCOC(=O)c1cc(C(=O)OCC)c2cc(N(C)C)ccc2n1

emission maximum (in C1CCOC1): 550 nm
SMILES: CCCCCOc1cc2oc(=O)c3c4ccc(N)cc4c4ccc5cccc6c(c1)c2c3c4c56
